Source: patent US20230365582A1, “NOVEL COMPOUNDS HAVING INHIBITORY ACTIVITY ON PROSTAGLANDIN E2 RECEPTOR AND USES THEREOF” (KANAPH THERAPEUTICS INC., priority 2020, published 2023)

What was measured:
hEP2 = molecular target: T1, hEP2 (Homo sapiens, UniProt P43116); experiment: hEP2 cAMP assay; format: cell-based; settings: HEK293 cells overexpressing hEP2; PGE2 agonist 400 pM; graded per Table 21; read-out: IC50 (nM) EP2 cAMP
T1 construct: expressed in transfected cells; host or cells: HEK293
Procedure, shortened: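 HEK293 cells overexpressing hEP2, serum-starved 4 h, then 1,000 cells/well treated with compound (10 μM–0.001 nM) plus 400 pM PGE2 (about EC50-80) in HBSS buffer with 0.5 mM IBMX for 12 min at room temperature. cAMP measured by TR-FRET (665/615 nm) as % of DMSO control; IC50 from 4-parameter fit, median of repeats.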

hEP4 = molecular target: T2, hEP4 (Homo sapiens, UniProt P35408); experiment: hEP4 cAMP assay; format: cell-based; settings: HEK293 cells overexpressing hEP4; PGE2 agonist 20 nM; graded per Table 21; read-out: IC50 (nM) EP4 cAMP
T2 construct: expressed in transfected cells; host or cells: HEK293
Procedure, shortened: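 HEK293 cells overexpressing hEP4, starved 4 h, were treated with compound (10 μM-0.001 nM) plus 20 nM PGE2 (EC50-80) in HBSS buffer with 0.5 mM IBMX for 18.5 min at room temperature. cAMP was read by TR-FRET (665/615 nm) as % of DMSO control; IC50 from 4-parameter fit, median of multiple experiments.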

T1 sequence (P43116 whole entry): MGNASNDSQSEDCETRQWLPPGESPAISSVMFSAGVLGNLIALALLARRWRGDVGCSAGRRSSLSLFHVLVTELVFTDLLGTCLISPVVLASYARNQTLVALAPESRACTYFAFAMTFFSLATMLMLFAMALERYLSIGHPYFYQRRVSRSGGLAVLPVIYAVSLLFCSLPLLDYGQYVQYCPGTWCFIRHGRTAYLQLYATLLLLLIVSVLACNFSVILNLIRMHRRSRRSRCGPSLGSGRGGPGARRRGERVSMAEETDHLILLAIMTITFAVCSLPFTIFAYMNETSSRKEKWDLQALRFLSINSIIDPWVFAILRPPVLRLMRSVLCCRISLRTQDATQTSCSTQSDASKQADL
T2 sequence (P35408 whole entry): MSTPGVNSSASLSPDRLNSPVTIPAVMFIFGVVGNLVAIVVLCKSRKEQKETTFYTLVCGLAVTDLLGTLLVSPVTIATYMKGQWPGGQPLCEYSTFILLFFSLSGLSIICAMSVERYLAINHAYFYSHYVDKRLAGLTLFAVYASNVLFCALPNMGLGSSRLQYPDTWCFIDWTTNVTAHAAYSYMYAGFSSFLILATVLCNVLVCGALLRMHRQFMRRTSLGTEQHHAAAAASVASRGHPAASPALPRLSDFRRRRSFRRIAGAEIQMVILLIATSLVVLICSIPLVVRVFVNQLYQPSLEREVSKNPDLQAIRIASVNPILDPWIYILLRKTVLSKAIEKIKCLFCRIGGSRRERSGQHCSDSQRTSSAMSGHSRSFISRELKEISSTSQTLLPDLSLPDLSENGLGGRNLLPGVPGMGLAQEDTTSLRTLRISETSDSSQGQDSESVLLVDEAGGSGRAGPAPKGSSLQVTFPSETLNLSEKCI

SMILES | IC50 (hEP2) [nM] | IC50 (hEP4) [nM]
COc1cncc(-c2ccc(Cn3ccc4scc(C(=O)NC5CC6(C5)CC(C(=O)O)C6)c43)cc2)c1 (centres unmarked) [Example 101, 6-(4-(4-(5-methoxypyridin-3-yl)benzyl)-4H-thieno[3,2-b]pyrrole-3-carboxamido)spiro[3.3]heptane-2-carboxylic acid] | 500 to 5000 | < 500
O=C(NC1CC2(C1)CC(C(=O)O)C2)c1csc2ccn(Cc3ccc4c(ccn4Cc4ccccc4)c3)c12 (centres unmarked) [Example 103, 6-(4-((1-benzyl-IH-indol-5-yl)methyl)-4H-thieno[3,2-b]pyrrole-3-carboxamido)spiro[3.3]heptane-2-carboxylic acid] | > 10000 | < 500
O=C(NC1CC2(C1)CC(C(=O)O)C2)c1csc2ccn(Cc3ccc(-c4ccccc4)nc3)c12 (centres unmarked) [Example 105, 6-(4-((6-phenylpyridin-3-yl)methyl)-4H-thieno[3,2-b]pyrrole-3-carboxamido)spiro[3.3]heptane-2-carboxylic acid] | 500 to 5000 | < 500
O=C(NC1CC2(C1)CC(C(=O)O)C2)c1csc2ccn(Cc3ccc(-c4ccncc4)cc3)c12 (centres unmarked) [Example 106, 6-(4-(4-(pyridin-4-yl)benzyl)-4H-thieno[3,2-b]pyrrole-3-carboxamido)spiro[3.3]heptane-2-carboxylic acid] | 5000 to 10000 | < 500
COc1cccc(-c2ccc(Cn3ccc4scc(C(=O)NC5CC6(C5)CC(C(=O)O)C6)c43)cc2)n1 (centres unmarked) [Example 108, 6-(4-(4-(6-methoxypyridin-2-yl)benzyl)-4H-thieno[3,2-b]pyrrole-3-carboxamido)spiro[3.3]heptane-2-carboxylic acid] | 500 to 5000 | < 500
COc1cc(F)cc(-c2ccc(Cn3ccc4scc(C(=O)NC5CC6(C5)CC(C(=O)O)C6)c43)cn2)c1 (centres unmarked) [Example 110, 6-(4-((6-(3-fluoro-5-methoxyphenyl)pyridin-3-yl)methyl)-4H-thieno[3,2-b]pyrrole-3-carboxamido)spiro[3.3]heptane-2-carboxylic acid] | < 500 | < 500
Cc1cc(C(F)(F)F)n(-c2ccc(Cn3ccc4scc(C(=O)NC5CC6(C5)CC(C(=O)O)C6)c43)cc2)n1 (centres unmarked) [Example 112, 6-(4-(4-(3-methyl-5-(trifluoromethyl)-IH-pyrazol-1-yl)benzyl)-4H-thieno[3,2-b]pyrrole-3-carboxamido)spiro[3.3]heptane-2-carboxylic acid] | > 10000 | 500 to 5000

Other lines, results leading:

IC50 (hEP2) [nM] | IC50 (hEP4) [nM] | SMILES
> 10000 | < 500 | Cn1cc(-c2ccc(Cn3ccc4scc(C(=O)NC5CC6(C5)CC(C(=O)O)C6)c43)cc2)cn1 (centres unmarked) [Example 102, 6-(4-(4-(1-methyl-1H-pyrazol-4-yl)benzyl)-4H-thieno[3,2-b]pyrrole-3-carboxamido)spiro[3.3]heptane-2-carboxylic acid]
5000 to 10000 | < 500 | O=C(NC1CC2(C1)CC(C(=O)O)C2)c1csc2ccn(Cc3ccc(-c4ccccn4)cc3)c12 (centres unmarked) [Example 104, 6-(4-(4-(pyridin-2-yl)benzyl)-4H-thieno[3,2-b]pyrrole-3-carboxamido)spiro[3.3]heptane-2-carboxylic acid]
> 10000 | 500 to 5000 | O=C(NC1CC2(C1)CC(C(=O)O)C2)c1csc2ccn(Cc3ccc(-n4cccn4)cc3)c12 (centres unmarked) [Example 107, 6-(4-(4-(1H-pyrazol-1-yl)benzyl)-4H-thieno[3,2-b]pyrrole-3-carboxamido)spiro[3.3]heptane-2-carboxylic acid]
500 to 5000 | < 500 | COc1ccnc(-c2ccc(Cn3ccc4scc(C(=O)NC5CC6(C5)CC(C(=O)O)C6)c43)cc2)c1 (centres unmarked) [Example 109, 6-(4-(4-(4-methoxypyridin-2-yl)benzyl)-4H-thieno[3,2-b]pyrrole-3-carboxamido)spiro[3.3]heptane-2-carboxylic acid]
> 10000 | < 500 | Cc1cnn(-c2ccc(Cn3ccc4scc(C(=O)NC5CC6(C5)CC(C(=O)O)C6)c43)cc2)c1 (centres unmarked) [Example 111, 6-(4-(4-(4-methyl-1H-pyrazol-1-yl)benzyl)-4H-thieno[3,2-b]pyrrole-3-carboxamido)spiro[3.3]heptane-2-carboxylic acid]
500 to 5000 | < 500 | COc1cc(F)cc(-c2ccc(Cn3ccc4scc(C(=O)NC5CC6(C5)CC(C(=O)O)C6)c43)nc2)c1 (centres unmarked) [Example 113, 6-(4-((5-(3-fluoro-5-methoxyphenyl)pyridin-2-yl)methyl)-4H-thieno[3,2-b]pyrrole-3-carboxamido)spiro[3.3]heptane-2-carboxylic acid]
